Data: ChEMBL document CHEMBL1926608, “Design, synthesis and in vitro antitumour activity of new heteroaryl ethylenes” (2012)

Key:
Type in all cases: functional
[1] = system: A549; test: Cytotoxicity against human A549 cells after 72 hrs by MTT assay; conditions: A549, 72 h, read-out: pLC50 (the source's name) (converted)
[2] = system: A549; test: Growth inhibition of human A549 cells after 72 hrs by MTT assay; conditions: A549, 72 h
[3] = system: NCI-H226; test: Growth inhibition of human NCI-H226 cells after 72 hrs by MTT assay; conditions: NCI-H226, 72 h
[4] = system: NCI-H226; test: Cytotoxicity against human NCI-H226 cells after 72 hrs by MTT assay; conditions: NCI-H226, 72 h

Row | Compound | CC50 [1] | GI50 [2] | GI50 [3] | LC50 [4]
1 | CN(C)c1ccc(/C=C/c2ccc3ccccc3[n+]2C)cc1 | 70.8 µM | 1.55 µM | 0.631 µM | –
2 | C[n+]1c(/C=C/c2ccc(N(c3ccccc3)c3ccccc3)cc2)cccc1/C=C/c1ccc(N(c2ccccc2)c2ccccc2)cc1 | 39.8 µM | 3.16 µM | 2 µM | 33.1 µM
3 | CCCCN(CCCC)c1ccc(-c2ccc(/C=C/c3ccc4ccccc4[n+]3C)s2)s1 | – | 0.01 µM | 0.0457 µM | 10 µM
4 | Cn1cccc1/C=C/c1cc[n+](C)cc1 | – | 1.66 µM | 100 µM | –
5 | CN(C)c1ccc(/C=C/c2cc[n+](C)cc2)cc1 | – | 1.58 µM | 10 µM | –
6 | C[n+]1c(/C=C/c2ccc(-c3ccccc3)s2)ccc2ccccc21 | – | 2 µM | 1.45 µM | 38 µM
7 | CN(C)c1ccc(/C=C(\C#N)c2cccc[n+]2C)cc1 | – | 3.8 µM | 19.5 µM | –
8 | CCCCN(CCCC)c1ccc(-c2ccc(/C=C/c3cccc(/C=C/c4ccc(-c5ccc(N(CCCC)CCCC)s5)s4)[n+]3C)s2)s1 | – | 4.79 µM | 1 µM | –
9 | CN(C)c1ccc(/C=C/c2cccc(/C=C/c3ccc(N(C)C)cc3)[n+]2C)cc1 | 13.2 µM | 0.372 µM | 0.0447 µM | 13.8 µM
10 | Cn1cccc1/C=C/c1cccc[n+]1C | – | 22.9 µM | 100 µM | –
